# From patent US20100158863A1, “TRIAZOLOANILINOPYRIMIDINE DERIVATIVES FOR USE AS ANTIVIRAL AGENTS” (ARROW THERAPEUTICS LIMITED, priority 2006, published 2010)
# Where two headings read alike, the source gives them in different places.
# Legend:
# HCV replicon 1b (Huh-9B) = test: HCV replicon activity, luciferase detection on the replicon plate; format: cell-based, HCV genotype 1b; details: Huh-9B replicon cells, luciferase signal
# Excerpt: 1b replicon (Huh.7) described in Science 285, 110-113. • Huh-9B: liver cell line with persistent bicistronic HCV genotype 1b coding sequence: [I3891ucubineo—3-3′_ET] includes firefly luciferase-ubiquitin-neomycin phosphotransferase fusion protein and EMCV-IRES driven non-structural HCV (NS3 to NS5B) coding sequence including cell culture adaptive mutations E1202G, […] and K1846T (Lohmann et al, 2001).
# This assay is set up using all 96 wells of flat-bottomed 96-well plates. Plates are set up one day before addition of compounds. The assay then runs for 4 days with ELISA development taking place on the 5th day.
# Exponentially growing Huh-9B monolayers are washed with sterile PBS to remove serum and treated with trypsin to detach cells from the flask.
# (§1) Cells are suspended in growth media and counted using a haemocytometer. Duplicate 96 well plates are seeded with Huh-9B at a density of 10^4 cells/well in a total volume of 100 μl/well of growth medium without antibiotics as depicted below.
# (§2) One of the plates is an opaque white 96-well plate used for IC50 determination based on the luciferase signal (referred as replicon plate), the other one is a clear 96-well plate used for a parallel determination of drug toxicity by methylene blue staining (referred as tox plate). Wells G12 and H12 of the tox plate are left without cells to use as buffer alone background reading.
# Plates are then incubated at 37° C. in a 5% CO2 environment for 24 h to obtain a 90% confluent cell monolayer.
# (§3) Doubling dilutions of each compound are generated in a separate 96 high volume capacity round bottom plate to twice their initial concentration in the assay using growth medium without antibiotics.
# Five compounds (C1 to C5) are tested on each assay plate as illustrated below plus a control compound that is also included in each plate.
# (§4) Compounds are tested across an 8 point doubling dilution series. The initial dilution of each compound to be tested is 25 μM and 12.5 μM for the control compound.
# DMSO only wells (A1 and A2) at 1% provide the signal corresponding to maximal (100%) luciferase detection. […] The signal from the DMSO wells at 1% (maximal signal) constitutes the assay window.
# (§5) For each compound dilution on the 2×96-well dilution plate 100 μl are transferred using a multichannel pipette onto the replicon and tox plates mirror wells which contain […] of medium to obtain the desired final concentration.
# Media is tapped out from wells into Virkon and plates are washed once in warm PBS and tapped dry gently.
# For each well 20 μl of lysis buffer is added by multichannel pipette. Lysates are stable at this point for several hours.
# Luciferase assay buffer is placed it in the luminometer (Lmax, Molecular Devices).
# The M injector is primed with 4×300 μl of luciferase assay buffer. The plate to be analyzed is placed in the luminometer and […] of luciferase assay buffer injected automatically into one well followed by 4 seconds integration read out.
# After one second delay a second well is injected with 100 μl of luciferase assay buffer followed by 4 seconds integration read out and so forth until all 96 wells are analyzed.
# Once the reading is finished the luminometer injection system is washed with deionised water.
# The data is acquired using the SOFTmax for Lmax Pro software package.
# (§6) SOFTmax data files are exported as Excel or text files. A standard four parameters non-linear regression analysis of the data obtained from each compound is then used to calculate the IC50.
# (§7) In the above analysis all replicate wells are meaned. The % of control is then calculated for each concentration point as a percentage of the DMSO control wells.
# Huh-9B = test: Toxicity determination on the tox plate by methylene blue staining; format: cell-based; details: Huh-9B cells, parallel tox plate
# Description: as §1, §2, §3, §4, §5
# Media is tapped out from wells into Virkon and plates tapped dry gently. To each well 100 μl of 0.5% solution of methylene blue in 50% methanol is added to all wells including blanks (G12 and H12). Plates are left at RT for a minimum of 1 h. Plates are then rinsed gently by immersing in a plastic box with water, tapped dry gently and left open until they are fully dry. Dye is solubilized adding 100 μl of 1% lauroylsarcosine to each well and shaking for 1 h at 37° C. Plates are read on the SpectraMax spectrophotometer at 620 nm wavelength using the SOFTmax Pro software package.
# as §6, §7
# HCV replicon 1b = test: ELISA, combined effect of HCV replication inhibitor with interferon αA; format: cell-based; details: for IC50: Hepatitis C virus
# Excerpt: ELISA Protocol as in Example 38
# The fractional inhibitory concentratin (FIC) can be used to identify a synergistic interaction.
Compound,IC50 (HCV replicon 1b (Huh-9B); Hepatitis C virus) [µM],Replicon TD50 (Huh-9B),"IC50 (HCV replicon 1b; compound alone, read-out: ELISA IC50 against HCV replicon 1b) [µM]",IC50 (HCV replicon 1b; read-out: IC50 of compound in combination) [µM],"fractional inhibitory concentration (FIC) (HCV replicon 1b; combination with interferon αA, FIC <0.5 = synergy)",IC50 (HCV replicon 1b (Huh-9B)) [µM]
"COc1ccc(-c2ccc3ncnc(Nc4ccc(-n5cncn5)cc4)c3c2)cc1OC [Example 10, [6-(3,4-Dimethoxy-phenyl)-quinazolin-4-yl]-(4-[1,2,4]triazol-1-yl-phenyl)-amine]",< 5,* (* <25 μM),0.2,≤ 0.067,0.336,
"COc1ccc(-c2ccc3ncnc(Nc4ccc(-n5nc(C(=O)O)nc5C)cc4)c3c2)cc1OC [Example 29, 1-(4-{6-[3,4-Dimethoxy-phenyl]-quinazolin-4-ylamino}-phenyl)-5-methyl-1H-[1,2,4]triazole-3-carboxylic acid]",5 to 20,** (** >25 μM),,,,
"COc1ccc(-c2ccc3ncnc(Nc4ccc(-n5nc(C(=O)N(C)C)nc5C)cc4)c3c2)cc1OC [Example 30, 1-{-4-[6-(3,4-Dimethoxy-phenyl)-quinazolin-4-ylamino]-phenyl}-5-methyl-1H-[1,2,4]triazole-3-carboxylic acid dimethylamide]",< 5,* (* <25 μM),,,,
"CNC(=O)c1nc(C)n(-c2ccc(Nc3ncnc4ccc(-c5ccc(OCCOC)c(F)c5)cc34)cc2)n1 [Example 31, 1-(4-{6-[3-Fluoro-4-(2-methoxy-ethoxy)-phenyl]-quinazolin-4-ylamino}-phenyl)-5-methyl-1H-[1,2,4]triazole-3-carboxylic acid methylamide]",< 5,** (** >25 μM),,,,
"COCCOc1ccc(-c2ccc3ncnc(Nc4ccc(-n5nc(C(=O)N(C)C)nc5C)cc4)c3c2)cc1F [Example 32, 1-(4-{6-[3-Fluoro-4-(2-methoxy-ethoxy)-phenyl]-quinazolin-4-ylamino}-phenyl)-5-methyl-1H-[1,2,4]triazole-3-carboxylic acid dimethylamide]",< 5,* (* <25 μM),,,,
Cc1cc(-n2cncn2)ccc1Nc1ncnc2ccc(Br)cc12 [Example 33],,** (** >25 μM),,,,< 5
"COCCOc1ccc(-c2ccc3ncnc(Nc4ccc(-n5nc(C(=O)N6CCN(C)CC6)nc5C)cc4)c3c2)cc1F [Example 34, [1-(4-{6-[3-Fluoro-4-(2-methoxy-ethoxy)-phenyl]-quinazolin-4-ylamino}-phenyl)-5-methyl-1H-[1,2,4]triazole-3-yl]-(4-methyl-piperazin-1-yl)methanone]",< 5,** (** >25 μM),,,,
